Source: ChEMBL document CHEMBL4507282, “Data for DCP probe BI-1950” (2021)

What was measured:
[1] = molecular target: Mitogen-activated protein kinase kinase kinase 5 (Homo sapiens) (UniProt Q99683); details: Compound concentration 1000.0 nM
[2] = molecular target: Bone morphogenetic protein receptor type-1B (Homo sapiens) (UniProt O00238); details: Compound concentration 1000.0 nM
[3] = molecular target: Calcium/calmodulin-dependent protein kinase type 1 (Homo sapiens) (UniProt Q14012); details: Compound concentration 1000.0 nM
[4] = molecular target: Cyclin-dependent kinase 11B (Homo sapiens) (UniProt P21127); details: Compound concentration 1000.0 nM
[5] = molecular target: Cyclin-dependent kinase 7 (Homo sapiens) (UniProt P50613); details: Compound concentration 1000.0 nM
[6] = molecular target: Cyclin-dependent kinase-like 5 (Homo sapiens) (UniProt O76039); details: Compound concentration 1000.0 nM
[7] = molecular target: Serine/threonine-protein kinase Chk1 (Homo sapiens) (UniProt O14757); details: Compound concentration 1000.0 nM
Serine/threonine-protein kinase Chk1 (Homo sapiens), sequence (O14757 whole entry, canonical isoform): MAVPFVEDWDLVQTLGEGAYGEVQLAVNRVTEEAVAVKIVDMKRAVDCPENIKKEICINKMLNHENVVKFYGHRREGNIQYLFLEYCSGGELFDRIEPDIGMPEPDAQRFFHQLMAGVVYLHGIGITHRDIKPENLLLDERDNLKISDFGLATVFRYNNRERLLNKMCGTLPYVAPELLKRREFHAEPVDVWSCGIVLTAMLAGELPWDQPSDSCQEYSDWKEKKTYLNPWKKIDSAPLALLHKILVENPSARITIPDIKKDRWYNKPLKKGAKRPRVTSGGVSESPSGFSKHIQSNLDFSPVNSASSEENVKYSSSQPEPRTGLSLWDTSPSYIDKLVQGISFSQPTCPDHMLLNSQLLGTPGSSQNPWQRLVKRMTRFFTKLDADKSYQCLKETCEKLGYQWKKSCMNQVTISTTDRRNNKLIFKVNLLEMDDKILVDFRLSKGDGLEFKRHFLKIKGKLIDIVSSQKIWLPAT

[8] = molecular target: Casein kinase I isoform alpha-like (Homo sapiens) (UniProt Q8N752); details: Compound concentration 1000.0 nM
[9] = molecular target: Casein kinase II subunit alpha' (Homo sapiens) (UniProt P19784); details: Compound concentration 1000.0 nM
Casein kinase II subunit alpha' (Homo sapiens), sequence (P19784 whole entry, looked up): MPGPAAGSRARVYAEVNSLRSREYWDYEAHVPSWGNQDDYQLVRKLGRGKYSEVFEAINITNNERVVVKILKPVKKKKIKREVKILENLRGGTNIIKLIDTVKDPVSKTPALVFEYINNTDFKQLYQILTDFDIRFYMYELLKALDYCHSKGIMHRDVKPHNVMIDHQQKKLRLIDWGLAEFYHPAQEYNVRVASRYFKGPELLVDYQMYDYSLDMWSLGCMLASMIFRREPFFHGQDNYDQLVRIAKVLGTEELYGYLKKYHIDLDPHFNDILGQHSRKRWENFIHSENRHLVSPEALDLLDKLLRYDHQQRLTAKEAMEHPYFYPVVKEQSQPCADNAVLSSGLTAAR

[10] = molecular target: Serine/threonine-protein kinase MRCK gamma (Homo sapiens) (UniProt Q6DT37); details: Compound concentration 1000.0 nM
[11] = test system: Epidermal growth factor receptor (Homo sapiens), P00533 [UNDEFINED MUTATION]; details: Compound concentration 1000.0 nM
Epidermal growth factor receptor (Homo sapiens), P00533 [UNDEFINED MUTATION], sequence (P00533 whole entry, looked up, change not shown): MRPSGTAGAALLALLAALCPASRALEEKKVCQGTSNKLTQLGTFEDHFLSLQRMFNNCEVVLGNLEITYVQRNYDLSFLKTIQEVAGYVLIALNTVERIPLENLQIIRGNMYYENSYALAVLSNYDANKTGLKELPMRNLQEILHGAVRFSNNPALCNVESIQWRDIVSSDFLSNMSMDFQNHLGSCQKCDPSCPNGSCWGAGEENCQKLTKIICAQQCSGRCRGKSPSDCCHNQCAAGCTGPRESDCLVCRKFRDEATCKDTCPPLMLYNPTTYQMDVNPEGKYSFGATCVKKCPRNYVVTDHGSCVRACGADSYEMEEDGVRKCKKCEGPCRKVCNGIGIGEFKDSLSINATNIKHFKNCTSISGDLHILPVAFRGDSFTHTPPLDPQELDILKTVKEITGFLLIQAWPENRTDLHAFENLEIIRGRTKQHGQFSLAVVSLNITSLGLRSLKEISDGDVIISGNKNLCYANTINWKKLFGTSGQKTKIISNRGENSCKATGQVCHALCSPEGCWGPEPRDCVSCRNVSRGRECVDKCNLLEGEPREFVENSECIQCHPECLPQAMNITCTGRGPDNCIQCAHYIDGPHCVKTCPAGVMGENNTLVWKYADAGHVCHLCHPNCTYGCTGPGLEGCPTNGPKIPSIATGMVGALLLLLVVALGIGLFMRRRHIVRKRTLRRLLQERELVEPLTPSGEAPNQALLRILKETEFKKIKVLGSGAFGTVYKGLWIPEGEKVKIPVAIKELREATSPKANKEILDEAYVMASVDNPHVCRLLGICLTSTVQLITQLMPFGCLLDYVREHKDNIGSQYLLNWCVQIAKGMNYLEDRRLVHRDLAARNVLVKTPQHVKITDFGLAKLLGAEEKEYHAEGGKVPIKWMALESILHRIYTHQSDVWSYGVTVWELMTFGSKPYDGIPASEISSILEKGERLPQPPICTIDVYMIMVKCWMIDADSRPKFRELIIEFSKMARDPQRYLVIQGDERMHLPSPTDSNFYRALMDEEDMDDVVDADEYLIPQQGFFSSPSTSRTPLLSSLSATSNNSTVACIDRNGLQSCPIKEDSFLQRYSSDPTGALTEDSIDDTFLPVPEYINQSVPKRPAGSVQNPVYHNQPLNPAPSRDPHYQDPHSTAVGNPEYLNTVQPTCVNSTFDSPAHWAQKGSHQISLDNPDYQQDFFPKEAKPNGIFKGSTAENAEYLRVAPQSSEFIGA

[12] = test system: Epidermal growth factor receptor (Homo sapiens), P00533 [UNDEFINED MUTATION]; details: Compound concentration 1000.0 nM; remark: listed apart in the source
[13] = molecular target: Focal adhesion kinase 1 (Homo sapiens) (UniProt Q05397); details: Compound concentration 1000.0 nM
[14] = molecular target: Glycogen synthase kinase-3 alpha (Homo sapiens) (UniProt P49840); details: Compound concentration 1000.0 nM
[15] = molecular target: Tyrosine-protein kinase JAK2 (Homo sapiens) (UniProt O60674); details: Compound concentration 1000.0 nM
Tyrosine-protein kinase JAK2 (Homo sapiens), sequence (O60674 whole entry, the tested form may be a part): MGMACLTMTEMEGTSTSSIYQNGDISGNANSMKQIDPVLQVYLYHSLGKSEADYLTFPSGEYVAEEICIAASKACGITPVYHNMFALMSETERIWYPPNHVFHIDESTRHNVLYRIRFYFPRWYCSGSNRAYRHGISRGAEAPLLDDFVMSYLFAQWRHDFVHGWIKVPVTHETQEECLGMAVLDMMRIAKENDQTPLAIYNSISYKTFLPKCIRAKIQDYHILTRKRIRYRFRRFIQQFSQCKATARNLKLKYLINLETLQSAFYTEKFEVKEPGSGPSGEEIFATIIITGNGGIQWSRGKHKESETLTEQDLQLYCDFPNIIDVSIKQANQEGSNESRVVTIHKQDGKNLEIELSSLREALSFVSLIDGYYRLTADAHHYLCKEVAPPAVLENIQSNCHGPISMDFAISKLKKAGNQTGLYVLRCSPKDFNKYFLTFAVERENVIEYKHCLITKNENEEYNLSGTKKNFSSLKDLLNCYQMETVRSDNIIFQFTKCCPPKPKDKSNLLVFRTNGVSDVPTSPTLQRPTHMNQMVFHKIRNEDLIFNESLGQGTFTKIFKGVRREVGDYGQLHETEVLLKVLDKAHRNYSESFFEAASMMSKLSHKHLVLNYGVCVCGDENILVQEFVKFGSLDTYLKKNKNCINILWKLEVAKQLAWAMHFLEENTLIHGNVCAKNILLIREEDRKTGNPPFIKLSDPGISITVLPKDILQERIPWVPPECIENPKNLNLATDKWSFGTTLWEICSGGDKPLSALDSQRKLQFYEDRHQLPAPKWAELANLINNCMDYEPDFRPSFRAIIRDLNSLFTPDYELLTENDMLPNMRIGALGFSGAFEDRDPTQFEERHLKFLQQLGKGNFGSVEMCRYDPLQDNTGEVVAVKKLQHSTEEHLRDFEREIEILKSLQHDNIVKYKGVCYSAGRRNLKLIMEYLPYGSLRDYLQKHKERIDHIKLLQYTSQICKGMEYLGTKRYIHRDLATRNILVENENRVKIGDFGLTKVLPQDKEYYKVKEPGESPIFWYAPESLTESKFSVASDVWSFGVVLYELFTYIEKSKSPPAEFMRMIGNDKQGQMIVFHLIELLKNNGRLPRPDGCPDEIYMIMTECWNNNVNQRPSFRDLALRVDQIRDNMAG

[16] = molecular target: LIM domain kinase 2 (Homo sapiens) (UniProt P53671); details: Compound concentration 1000.0 nM
[17] = molecular target: Mitogen-activated protein kinase kinase kinase kinase 4 (Homo sapiens) (UniProt O95819); details: Compound concentration 1000.0 nM
[18] = molecular target: Dual specificity mitogen-activated protein kinase kinase 1 (Homo sapiens) (UniProt Q02750); details: Compound concentration 1000.0 nM
[19] = molecular target: Serine/threonine-protein kinase PAK 1 (Homo sapiens) (UniProt Q13153); details: Compound concentration 1000.0 nM
[20] = molecular target: Serine/threonine-protein kinase PAK 5 (Homo sapiens) (UniProt Q9P286); details: Compound concentration 1000.0 nM
[21] = molecular target: 3-phosphoinositide-dependent protein kinase 1 (Homo sapiens) (UniProt O15530); details: Compound concentration 1000.0 nM
3-phosphoinositide-dependent protein kinase 1 (Homo sapiens), sequence (O15530 whole entry, canonical isoform): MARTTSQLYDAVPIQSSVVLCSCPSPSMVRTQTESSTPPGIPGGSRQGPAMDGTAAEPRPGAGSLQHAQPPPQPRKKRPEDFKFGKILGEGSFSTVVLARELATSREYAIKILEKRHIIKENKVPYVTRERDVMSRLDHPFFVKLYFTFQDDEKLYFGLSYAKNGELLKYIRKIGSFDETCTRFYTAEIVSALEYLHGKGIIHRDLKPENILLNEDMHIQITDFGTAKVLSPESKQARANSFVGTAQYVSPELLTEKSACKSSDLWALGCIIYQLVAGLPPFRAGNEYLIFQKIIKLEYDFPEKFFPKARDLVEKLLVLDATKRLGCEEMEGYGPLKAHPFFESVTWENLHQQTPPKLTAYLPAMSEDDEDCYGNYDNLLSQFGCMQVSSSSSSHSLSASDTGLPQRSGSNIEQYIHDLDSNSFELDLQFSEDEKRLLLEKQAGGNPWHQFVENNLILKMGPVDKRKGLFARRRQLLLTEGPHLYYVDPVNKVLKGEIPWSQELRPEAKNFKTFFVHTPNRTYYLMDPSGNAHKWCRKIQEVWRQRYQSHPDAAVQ

[22] = molecular target: Phosphatidylinositol 4,5-bisphosphate 3-kinase catalytic subunit gamma isoform (Homo sapiens) (UniProt P48736); details: Compound concentration 1000.0 nM
[23] = molecular target: Serine/threonine-protein kinase PLK2 (Homo sapiens) (UniProt Q9NYY3); details: Compound concentration 1000.0 nM
[24] = molecular target: Protein kinase C epsilon type (Homo sapiens) (UniProt Q02156); details: Compound concentration 1000.0 nM
[25] = molecular target: Serine/threonine-protein kinase D2 (Homo sapiens) (UniProt Q9BZL6); details: Compound concentration 1000.0 nM
[26] = molecular target: RAF proto-oncogene serine/threonine-protein kinase (Homo sapiens) (UniProt P04049); details: Compound concentration 1000.0 nM
RAF proto-oncogene serine/threonine-protein kinase (Homo sapiens), sequence (P04049 whole entry): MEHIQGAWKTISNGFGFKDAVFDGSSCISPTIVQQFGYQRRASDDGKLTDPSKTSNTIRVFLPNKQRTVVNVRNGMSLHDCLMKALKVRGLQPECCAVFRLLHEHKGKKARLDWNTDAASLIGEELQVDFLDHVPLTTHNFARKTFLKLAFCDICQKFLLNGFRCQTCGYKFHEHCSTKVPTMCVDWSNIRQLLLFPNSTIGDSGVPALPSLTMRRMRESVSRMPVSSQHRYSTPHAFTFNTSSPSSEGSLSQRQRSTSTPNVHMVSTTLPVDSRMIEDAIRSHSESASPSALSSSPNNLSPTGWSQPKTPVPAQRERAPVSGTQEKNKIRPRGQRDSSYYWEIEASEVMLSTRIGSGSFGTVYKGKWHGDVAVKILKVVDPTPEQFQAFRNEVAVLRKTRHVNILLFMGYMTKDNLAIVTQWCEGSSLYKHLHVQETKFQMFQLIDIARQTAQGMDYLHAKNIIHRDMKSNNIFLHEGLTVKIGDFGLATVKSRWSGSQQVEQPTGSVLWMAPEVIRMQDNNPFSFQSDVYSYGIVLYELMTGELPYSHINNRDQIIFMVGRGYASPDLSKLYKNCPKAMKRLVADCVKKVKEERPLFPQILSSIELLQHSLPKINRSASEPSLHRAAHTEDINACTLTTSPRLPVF

[27] = test system: Proto-oncogene tyrosine-protein kinase receptor Ret (Homo sapiens), P07949 [M918T]; details: Compound concentration 1000.0 nM
[28] = molecular target: Receptor-interacting serine/threonine-protein kinase 1 (Homo sapiens) (UniProt Q13546); details: Compound concentration 1000.0 nM
Receptor-interacting serine/threonine-protein kinase 1 (Homo sapiens), sequence (Q13546 whole entry): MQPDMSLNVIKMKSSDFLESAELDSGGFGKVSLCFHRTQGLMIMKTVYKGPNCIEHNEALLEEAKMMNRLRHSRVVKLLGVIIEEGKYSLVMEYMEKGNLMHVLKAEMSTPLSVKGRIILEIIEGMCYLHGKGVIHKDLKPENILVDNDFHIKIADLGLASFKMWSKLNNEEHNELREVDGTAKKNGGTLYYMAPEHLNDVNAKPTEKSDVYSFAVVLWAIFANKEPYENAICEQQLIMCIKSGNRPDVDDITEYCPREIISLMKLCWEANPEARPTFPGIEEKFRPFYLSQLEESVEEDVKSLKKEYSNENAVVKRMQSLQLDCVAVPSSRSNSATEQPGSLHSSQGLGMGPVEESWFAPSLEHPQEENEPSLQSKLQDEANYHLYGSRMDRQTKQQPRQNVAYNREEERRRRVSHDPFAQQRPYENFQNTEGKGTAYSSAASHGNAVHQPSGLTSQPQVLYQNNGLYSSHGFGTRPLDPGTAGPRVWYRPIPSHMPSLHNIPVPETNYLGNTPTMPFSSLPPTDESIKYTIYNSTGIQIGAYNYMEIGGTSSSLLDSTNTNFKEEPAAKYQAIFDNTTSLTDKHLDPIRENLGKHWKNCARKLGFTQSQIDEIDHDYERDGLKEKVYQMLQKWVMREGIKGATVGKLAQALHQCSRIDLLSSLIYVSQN

[29] = molecular target: Receptor-interacting serine/threonine-protein kinase 2 (Homo sapiens) (UniProt O43353); details: Compound concentration 1000.0 nM
[30] = molecular target: Serine/threonine-protein kinase 33 (Homo sapiens) (UniProt Q9BYT3); details: Compound concentration 1000.0 nM
[31] = molecular target: Mitogen-activated protein kinase kinase kinase 7 (Homo sapiens) (UniProt O43318); details: Compound concentration 1000.0 nM
[32] = molecular target: Serine/threonine-protein kinase TAO1 (Homo sapiens) (UniProt Q7L7X3); details: Compound concentration 1000.0 nM
[33] = molecular target: Tyrosine-protein kinase receptor Tie-1 (Homo sapiens) (UniProt P35590); details: Compound concentration 1000.0 nM
[34] = molecular target: Transient receptor potential cation channel subfamily M member 6 (Homo sapiens) (UniProt Q9BX84); details: Compound concentration 1000.0 nM
[35] = molecular target: Tyrosine-protein kinase TXK (Homo sapiens) (UniProt P42681); details: Compound concentration 1000.0 nM
[36] = molecular target: 5-hydroxytryptamine receptor 7 (Homo sapiens) (UniProt P34969); details: Compound concentration 10.0 uM
[37] = molecular target: D(2) dopamine receptor (Homo sapiens) (UniProt P14416); details: Compound concentration 10.0 uM
[38] = molecular target: T1, D(4) dopamine receptor (Homo sapiens) (UniProt P21917); details: Compound concentration 10.0 uM
T1 sequence (whole entry): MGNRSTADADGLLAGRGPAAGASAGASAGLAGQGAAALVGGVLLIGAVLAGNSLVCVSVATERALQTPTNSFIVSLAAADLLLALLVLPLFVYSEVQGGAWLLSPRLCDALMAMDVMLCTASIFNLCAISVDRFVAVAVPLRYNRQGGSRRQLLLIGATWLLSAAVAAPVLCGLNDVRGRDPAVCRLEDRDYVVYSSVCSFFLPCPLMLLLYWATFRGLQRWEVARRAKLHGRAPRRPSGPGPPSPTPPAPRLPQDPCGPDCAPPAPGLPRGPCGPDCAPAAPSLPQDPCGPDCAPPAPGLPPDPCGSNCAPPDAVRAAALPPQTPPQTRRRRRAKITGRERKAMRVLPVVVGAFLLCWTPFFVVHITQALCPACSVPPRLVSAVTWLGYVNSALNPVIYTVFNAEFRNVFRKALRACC

[39] = molecular target: Beta-2 adrenergic receptor (Homo sapiens) (UniProt P07550); details: Compound concentration 10.0 uM

Compound: C[C@H](NC(=O)c1cnc2n1[C@](C)(Cc1ccc(C#N)cc1)C(=O)N2c1cc(Cl)c(F)c(Cl)c1)C(=O)NC1(c2ccccn2)CC1 [BI 1950]
- residual activity [1]: 92%
- residual activity [2]: 99%
- residual activity [3]: 96%
- residual activity [4]: 100%
- residual activity [5]: 94%
- residual activity [6]: 100%
- residual activity [7]: 100%
- residual activity [8]: 100%
- residual activity [9]: 99%
- residual activity [10]: 100%
- residual activity [11]: 100%
- residual activity [12]: 100%
- residual activity [13]: 100%
- residual activity [14]: 100%
- residual activity [15]: 100%
- residual activity [16]: 100%
- residual activity [17]: 100%
- residual activity [18]: 92%
- residual activity [19]: 95%
- residual activity [20]: 100%
- residual activity [21]: 100%
- residual activity [22]: 86%
- residual activity [23]: 75%
- residual activity [24]: 100%
- residual activity [25]: 100%
- residual activity [26]: 100%
- residual activity [27]: 100%
- residual activity [28]: 100%
- residual activity [29]: 68%
- residual activity [30]: 88%
- residual activity [31]: 97%
- residual activity [32]: 86%
- residual activity [33]: 100%
- residual activity [34]: 100%
- residual activity [35]: 90%
- inhibition [36]: -4.31%
- inhibition [37]: 7.62%
- inhibition [38]: -2.68%
- inhibition [39]: -9.72%

Compound: C[C@@]1(Cc2ccc(C#N)cc2)C(=O)N(c2cc(Cl)cc(Cl)c2)c2ncc(C(=O)NC3(c4nc(C5CCC5)no4)CC3)n21 [BI 9446]
- residual activity [1]: 100%
- residual activity [2]: 100%
- residual activity [3]: 93%
- residual activity [4]: 100%
- residual activity [5]: 100%
- residual activity [6]: 100%
- residual activity [7]: 90%
- residual activity [8]: 89%
- residual activity [9]: 100%
- residual activity [10]: 100%
- residual activity [11]: 97%
- residual activity [12]: 100%
- residual activity [13]: 100%
- residual activity [14]: 100%
- residual activity [15]: 100%
- residual activity [16]: 100%
- residual activity [17]: 91%
- residual activity [18]: 97%
- residual activity [19]: 99%
- residual activity [20]: 100%
- residual activity [21]: 100%
- residual activity [22]: 95%
- residual activity [23]: 98%
- residual activity [24]: 100%
- residual activity [25]: 100%
- residual activity [26]: 100%
- residual activity [27]: 100%
- residual activity [28]: 100%
- residual activity [29]: 91%
- residual activity [30]: 100%
- residual activity [31]: 96%
- residual activity [32]: 97%
- residual activity [33]: 100%
- residual activity [34]: 0%
- residual activity [35]: 100%
- inhibition [36]: 4.18%
- inhibition [37]: 16.4%
- inhibition [38]: 13.6%
- inhibition [39]: -7.08%
